The values below come from patent US20180110740A1, “METHODS AND MATERIALS FOR TREATING ENDOMETRIOSIS” (Mayo Foundation for Medical Education and Research, priority 2015, published 2018).

For series [1], the system named is endometriotic progression. Nature of the series: Dioxin-endometriosis model in wild type mice. Format: in vivo. Conditions: wild type mice gavaged with Dioxin 3 μg/kg, HATI 0.2 μg/gm/day or vehicle. On the procedure: (§1) Ishikawa cells were treated with Dioxin (0.1-10 nM) and KLF11 or EV-control. Treatment effects were determined on CYP3A4, a well-characterized CYP450 gene that is also an endometrial estrogen metabolizing enzyme. Promoter and gene expression were determined by reporter assay, qPCR, and western blot. CYP3A4 activity was determined by a specific substrate assay. Promoter histone code was evaluated by ChIP in Ishikawa treated with Dioxin and Histone Acetyl Transferase Inhibitor (HATI) or controls. The Dioxin-endometriosis model was created per published protocols in wild type mice gavaged with Dioxin (3 μg/kg) or vehicle. Animals were additionally treated 0.2 μg/gm/day of HATI or vehicle control (N=10/grp). Disease progression was evaluated in 12 weeks by morphometry, IHC, and qPCR.

The test system of the next series is CYP3A4. Briefly: CYP3A4 promoter, expression and activity in Ishikawa cells (reporter assay, qPCR, western blot, specific substrate assay). Format: cell-based. Conditions: Dioxin 0.1-10 nM. How it is done: as §1
In general terms: In a reporter assay the amount or activity of a reporter protein is the signal.

The test system of a further series is endometriotic lesions. Nature of the series: Endometriotic lesion model: autologous uterine segments implanted onto the peritoneum of Klf11-/- or wt mice. Format: in vivo. The following applies: wt animals; 50 μg/g of body weight; evaluated three weeks after treatment; vs DMSO. On the procedure: FIG. 4 is a schematic diagram showing the design of the mouse endometriosis model. Two 0.5 cm uterine fragments are everted, so that the endometrium faces the peritonel cavity. These are then sutured to the flank peritoneum on either side by 8/0 proline microfilament suture.
FIG. 5 contains photographs of Klf11^-/- and wt animals induced to produce endometriosis lesions and treated with DMSO (control), garcinol (0.2 μg/g of body weight, or suberoyl anilide hydroxamic acid (SAHA; 50 μg/g of body weight). SAHA is also known as N-hydroxy-N′-phenyl-octanediamide or vorinostat. Endometriotic progression was evaluated three weeks after treatment. The arrows point to and define lesion associated scarring.
In another experiment, endometriotic lesions were induced in Klf11^-/- or wildtype (wt) mice (n=10 for each group) by implanting autologous 5 mm uterine segments onto the peritoneum (FIGS. 3 and 4). […] In addition, COL1A1 polypeptide expression was increased in implants from Klf11^-/- animals (FIGS. 3D and 3H) as compared to those from wt animals (FIGS. 3C and 3G).

Regarding `Clc1cc2c(cc1Cl)Oc1cc(Cl)c(Cl)cc1O2` [Dioxin, 2,3,7,8-tetrachlorodibenzodioxin], the “lesional CYP3A4 expression” value in series [1] (12 weeks) is “lesional epithelial CYP3A4 activation”. This compound also returned a Score in series [1] (12 weeks, P<0.05) of 26.4. Besides, the endometriotic disease progression result in series [1] (evaluated in 12 weeks by morphometry, IHC, qPCR) is “prolific endometriotic progression”. For the same compound, in the series with CYP3A4, the CYP3A4 activation entry was “dose-dependently activated”.

Consider `O=C(CCCCCCC(=O)Nc1ccccc1)NO` [SAHA, N-hydroxy-N′-phenyl-octanediamide], for which the fibrosis result in the series with endometriotic lesions is “induction of de novo fibrosis”.
